The subject of one data set is HSV-1. Nature of the data set: HSV-1 infection of human brain organoids. It counts as cell-based, HSV-1 KOS strain. The note with it: 250 nM PAV-174. As for the experimental part:
60 days old human brain organoids with an estimated cell number of 2.5x10^6 were preincubated with DMSO or 250 nM of PAV-174 for 1h (final DMSO concentration was 0.5%). Then organoids were infected with HSV-1 at an MOI of 0.1 or 1.0. At the next day the medium was renewed and new compound was added. After another 24h, the organoids were washed two times with PBS and then either fixed with 4% PFA at 4°C overnight (for immunocytochemistry and TUNEL assay) or lysed with cold RIPA buffer (50 mM Tris-HCL, pH 7.4, 1% NP-40, 0.5% Na-deoxycholate, 0.1% SDS, 150 mM NaCl, 5 mM EDTA, 50 mM NaF) plus 1X Protease inhibitor cocktail (Roche) and phosphatase inhibitor cocktail (Sigma) followed by 4x sonication for 30s using a Misonix ultrasonic water bath at 100% amplitude. Protein concentration was determined with the DC Protein Assay (Bio-Rad). For immunocytochemistry and TUNEL assay fixed organoids were embedded in paraffin and section of 5 μm were prepared.
For immunocytochemistry of organoid sections, frozen slides were thawed and kept on RT until they were dry. Slides were washed with PBS and incubated for 5 min. Then the sections were incubated with 30 mM glycine in PBS for 5 min and permeabilized with PBS/0.5% TX100/0.1% Tween 20 for 10 min. To equally distribute the solutions a parafilm layer was placed on top. […]

On the set-up of data set [1]: species or system SD rats. The following applies: rat, in vivo, ip, 5 mg/kg. Here is the method:
Figure S5. PAV-17 4 decreases ta u phosphorylation and aggr e gat ion in vi v o. Rel a ted to […]
(A) MTD (Maximum Tol erated Dose) assessment of PAV com pounds in BALB/c mice. BALB/c mice we re dosed through int ra pe rit o ne al (IP ) ro ute at di ff e ren t doses as pe r bo dy we igh t of an ima ls an d mice we re obser ved at di ff e ren t time interval for toxic signs till 48 h, PD (Post dose) . MTD at wa s declared at NOAEL (No-obser ved-adver se-effect level) conc. of PAV […]
(B) PAV-61 7 dose- an d MIF-de pe nd en t ly reduces tau phosphorylati on (A T8) . SH-SY5Y-P301S-control or -MIF-knockdown cel ls we re treated with the indicated concentrations of PAV- […]
cel ls. The di ag ram s show the signals of AT8 normalized to total tau (HT7 ) from six (n =6) in de pe nd en t exper iments. One-wa y ANOVA (Sidak´s post-hoc)
(C) Pharmacokinetic assessment of PAV-61 7 in Sprague Da wley ra ts (S D). Ma le SD ra ts (n=4) we re dosed via three ro utes na me ly intravenous (IV )- 1 mg/kg, (IP )- 5 mg/kg an d per ora l (P O)- 5 mg/kg. Plasma concentration wa s anal yzed at di ff e ren t time intervals. Pharmacokinetic pa ra met e rs we re de t erm ine d usi ng Win No nlin . Cma x (p ea k pl asma concentration) achieved through IV wa s 12 8 ng / mL, IP wa s 36 2. 6 ng / mL an d PO wa s 15 1. 1 ng / mL at Tmax (time of pe ak concentration obser ved) 1 h, 0. 5 h an d 4 h respectively. […]

Consider `CCc1cc(N2CCCC2)cc2[s+]c3cc(N4CCCC4)cc(C)c3nc12.[I-]` [PAV-174, 3,7-Di(pyrrolidine-1-yl) 1-ethyl-9-methyl-phenothiazin-5-ium iodide], for which the “HSV-1 infection of human brain organoids (HSV-1-gC staining)” value in the data set with HSV-1 is on record as “completely abolished”.

For `[I-].c1cc2nc3ccc(N4CCCC4)cc3[s+]c2cc1N1CCCC1` [PAV-617, 3,7-Di(pyrrolidine-1-yl)phenothiazine-5-ium iodide], the tissue penetration entry in data set [1] is reported as “good tissue penetration, including the brain”.
